Source: PubChem BioAssay AID256 (DTP/NCI, 2004)
Where “and” joins values, the source holds several entries; their conditions need not be identical. Equal entries are not always repeated. Toxic doses and inconclusive results are not listed.

System: CD2F1 mice, L1210 leukemia ip, survival T/C
Assay: NCI In Vivo Anticancer Drug Screen. Data for tumor model L1210 Leukemia (intraperitoneal) in CD2F1 (CDF1) mice
Conditions: higher = longer survival
Summary of the method: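 Ratio T/C, where T is the treated-group value and C the vehicle-dosed control value, from mice implanted with a transplantable tumor.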

[1] = endpoint: mean survival time, dose: 100.0 mg/kg/injection, schedule: Q01DX009 (ip), vehicle: saline with Tween-80
[2] = endpoint: mean survival time, dose: 200.0 mg/kg/injection, schedule: Q01DX009 (ip), vehicle: saline with Tween-80
[3] = endpoint: mean survival time, dose: 400.0 mg/kg/injection, schedule: Q01DX009 (ip), vehicle: saline with Tween-80
[4] = endpoint: mean survival time, dose: 100.0 mg/kg/injection, schedule: Q04DX003 (ip), vehicle: saline with Tween-80
[5] = endpoint: mean survival time, dose: 200.0 mg/kg/injection, schedule: Q04DX003 (ip), vehicle: saline with Tween-80
[6] = endpoint: mean survival time, dose: 100.0 mg/kg/injection, schedule: Q04DX003 (ip), vehicle: Klucel (hydroxypropylcellulose) (HPC)
[7] = endpoint: mean survival time, dose: 200.0 mg/kg/injection, schedule: Q04DX003 (ip), vehicle: Klucel (hydroxypropylcellulose) (HPC)
[8] = endpoint: mean survival time, dose: 400.0 mg/kg/injection, schedule: Q04DX003 (ip), vehicle: Klucel (hydroxypropylcellulose) (HPC)
[9] = endpoint: mean survival time, dose: 100.0 mg/kg/injection, schedule: Q01DX009 (ip), vehicle: other
[10] = endpoint: mean survival time, dose: 200.0 mg/kg/injection, schedule: Q01DX009 (ip), vehicle: other
[11] = endpoint: mean survival time, dose: 75.0 mg/kg/injection, schedule: Q01DX001 (ip), vehicle: saline

COC12[C@@H]3N[C@@H]3CN1C1=C(C(=O)C(NCCSSCCNC3=C(C)C(=O)C4=C(C3=O)C(COC(N)=O)[C@]3(OC)C5N[C@@H]5CN43)=C(C)C1=O)[C@@H]2COC(N)=O (stereo partly drawn)
T/C (endpoint: mean survival time, dose: 1.5 mg/kg/injection, schedule: Q01DX001 (ip), vehicle: distilled water + Tween-80): 109 % of control | T/C (endpoint: mean survival time, dose: 1.5 mg/kg/injection, schedule: Q01DX001 (ip), vehicle: water): 110 % of control | T/C (endpoint: mean survival time, dose: 3.0 mg/kg/injection, schedule: Q01DX001 (ip), vehicle: water): 121 % of control | T/C (endpoint: mean survival time, dose: 6.0 mg/kg/injection, schedule: Q01DX001 (ip), vehicle: water): 122 % of control | T/C (endpoint: mean survival time, dose: 12.0 mg/kg/injection, schedule: Q01DX001 (ip), vehicle: distilled water + Tween-80): 162 % of control | T/C (endpoint: mean survival time, dose: 12.0 mg/kg/injection, schedule: Q01DX001 (ip), vehicle: water): 151 % of control | T/C (endpoint: mean survival time, dose: 24.0 mg/kg/injection, schedule: Q01DX001 (ip), vehicle: water): 104 % of control | T/C (endpoint: median survival time, dose: 0.05 mg/kg/injection, schedule: Q01DX009 (ip), vehicle: other): 108 % of control | T/C (endpoint: median survival time, dose: 0.1 mg/kg/injection, schedule: Q01DX009 (ip), vehicle: other): 119 % of control | T/C (endpoint: median survival time, dose: 0.2 mg/kg/injection, schedule: Q01DX009 (ip), vehicle: other): 119 % of control | T/C (endpoint: median survival time, dose: 0.2 mg/kg/injection, schedule: Q04DX003 (ip), vehicle: other): 104 % of control | T/C (endpoint: median survival time, dose: 0.4 mg/kg/injection, schedule: Q01DX001 (ip), vehicle: other): 119 % of control | T/C (endpoint: median survival time, dose: 0.4 mg/kg/injection, schedule: Q04DX003 (ip), vehicle: other): 110 % of control | T/C (endpoint: median survival time, dose: 0.8 mg/kg/injection, schedule: Q01DX001 (ip), vehicle: other): 116 % of control | T/C (endpoint: median survival time, dose: 0.8 mg/kg/injection, schedule: Q04DX003 (ip), vehicle: other): 124 % of control | T/C (endpoint: median survival time, dose: 1.6 mg/kg/injection, schedule: Q03DX003 (ip), vehicle: other): 151 % of control | T/C (endpoint: median survival time, dose: 3.2 mg/kg/injection, schedule: Q01DX009 (ip), vehicle: other): 161 % of control | T/C (endpoint: median survival time, dose: 3.2 mg/kg/injection, schedule: Q03DX003 (ip), vehicle: other): 154 % of control and 176 % of control | T/C (endpoint: median survival time, dose: 3.2 mg/kg/injection, schedule: Q04DX003 (ip), vehicle: other): 165 % of control | T/C (endpoint: median survival time, dose: 6.4 mg/kg/injection, schedule: Q01DX009 (ip), vehicle: other): 124 % of control | T/C (endpoint: median survival time, dose: 6.4 mg/kg/injection, schedule: Q03DX003 (ip), vehicle: other): 173 % of control and 187 % of control | T/C (endpoint: median survival time, dose: 6.4 mg/kg/injection, schedule: Q04DX003 (ip), vehicle: other): 178 % of control | T/C (endpoint: median survival time, dose: 9.6 mg/kg/injection, schedule: Q01DX001 (ip), vehicle: other): 168 % of control | T/C (endpoint: median survival time, dose: 9.6 mg/kg/injection, schedule: Q03DX003 (ip), vehicle: other): 154 % of control | T/C (endpoint: median survival time, dose: 9.6 mg/kg/injection, schedule: Q04DX003 (ip), vehicle: other): 169 % of control | T/C (endpoint: median survival time, dose: 19.2 mg/kg/injection, schedule: Q01DX001 (ip), vehicle: other): 160 % of control

NC(=O)/C=C/C1=NCCC1
T/C (endpoint: mean survival time, dose: 7.5 mg/kg/injection, schedule: Q04DX003 (ip), vehicle: saline with Tween-80): 97 % of control | T/C (endpoint: mean survival time, dose: 15.0 mg/kg/injection, schedule: Q04DX003 (ip), vehicle: saline with Tween-80): 97 % of control | T/C (endpoint: mean survival time, dose: 30.0 mg/kg/injection, schedule: Q04DX003 (ip), vehicle: saline with Tween-80): 102 % of control | T/C [1]: 100 % of control | T/C [2]: 103 % of control | T/C [3]: 103 % of control

CSc1nc(C)cc(N)n1
T/C [4]: 107 % of control | T/C [5]: 102 % of control

CCCCCCCCCCCC(=O)[O][Sn]([CH2]CCC)([CH2]CCC)[O]C(=O)CCCCCCCCCCC
T/C (endpoint: mean survival time, dose: 3.0 mg/kg/injection, schedule: Q04DX003 (ip), vehicle: saline with Tween-80): 100 % of control | T/C (endpoint: mean survival time, dose: 6.0 mg/kg/injection, schedule: Q04DX003 (ip), vehicle: saline with Tween-80): 103 % of control | T/C (endpoint: mean survival time, dose: 12.0 mg/kg/injection, schedule: Q04DX003 (ip), vehicle: saline with Tween-80): 103 % of control

O=c1oc2ccccc2c2ccccc12
T/C (endpoint: mean survival time, dose: 100.0 mg/kg/injection, schedule: Q04DX002 (ip), vehicle: saline with Tween-80): 108 % of control | T/C (endpoint: mean survival time, dose: 200.0 mg/kg/injection, schedule: Q04DX002 (ip), vehicle: saline with Tween-80): 101 % of control | T/C (endpoint: mean survival time, dose: 400.0 mg/kg/injection, schedule: Q04DX002 (ip), vehicle: saline with Tween-80): 101 % of control

CC(CC(=O)Nc1ccccc1)C(=O)O (stereo not drawn)
T/C [4]: 103 % of control | T/C [5]: 101 % of control | T/C (endpoint: mean survival time, dose: 400.0 mg/kg/injection, schedule: Q04DX003 (ip), vehicle: saline with Tween-80): 106 % of control

c1ccc2c(c1)ccc1c(C3CO3)cccc12 (stereo not drawn)
T/C (endpoint: mean survival time, dose: 100.0 mg/kg/injection, schedule: Q01DX005 (ip), vehicle: saline with Tween-80): 103 % of control | T/C [1]: 93 % of control | T/C (endpoint: mean survival time, dose: 200.0 mg/kg/injection, schedule: Q01DX005 (ip), vehicle: saline with Tween-80): 106 % of control | T/C [2]: 101 % of control | T/C (endpoint: mean survival time, dose: 400.0 mg/kg/injection, schedule: Q01DX005 (ip), vehicle: saline with Tween-80): 95 % of control | T/C [3]: 101 % of control

C#CCCOC(=O)Nc1ccccc1
T/C [6]: 97 % of control | T/C [7]: 100 % of control | T/C [8]: 110 % of control

O=C(NC(CSSCC(NC(=O)OCc1ccccc1)C(=O)O)C(=O)O)OCc1ccccc1 (stereo not drawn)
T/C [9]: 95 % of control | T/C [10]: 95 % of control | T/C (endpoint: mean survival time, dose: 400.0 mg/kg/injection, schedule: Q01DX009 (ip), vehicle: other): 98 % of control

O=NN(CCCl)C(=O)NC1OC(CO)C(O)C(O)C1O (stereo not drawn)
T/C (endpoint: mean survival time, dose: 2.5 mg/kg/injection, schedule: Q01DX009 (ip), vehicle: saline): 215 % of control | T/C (endpoint: mean survival time, dose: 5.0 mg/kg/injection, schedule: Q01DX009 (ip), vehicle: saline): 176 % of control | T/C (endpoint: mean survival time, dose: 10.0 mg/kg/injection, schedule: Q04DX002 (ip), vehicle: saline): 243 % of control | T/C (endpoint: mean survival time, dose: 20.0 mg/kg/injection, schedule: Q04DX002 (ip), vehicle: saline): 121 % of control | T/C (endpoint: median survival time, dose: 1.8 mg/kg/injection, schedule: Q01DX009 (ip), vehicle: saline): 175 % of control | T/C (endpoint: median survival time, dose: 3.0 mg/kg/injection, schedule: Q01DX009 (ip), vehicle: saline): 175 % of control | T/C (endpoint: median survival time, dose: 13.89 mg/kg/injection, schedule: Q01DX009 (ip), vehicle: saline): 96 % of control

CN(Cc1ccccc1)/C(N)=N/N
T/C [11]: 102 % of control | T/C (endpoint: mean survival time, dose: 150.0 mg/kg/injection, schedule: Q01DX001 (ip), vehicle: saline): 107 % of control

CC(C)=CCC/C(C)=C\CC1=C(O)c2ccccc2C(=O)C1=O
T/C (endpoint: mean survival time, dose: 50.0 mg/kg/injection, schedule: Q01DX009 (ip), vehicle: other): 96 % of control | T/C [9]: 94 % of control | T/C [10]: 95 % of control

CC1=CC(=O)C(Sc2ccc(C)cc2)=CC1=O
T/C (endpoint: mean survival time, dose: 50.0 mg/kg/injection, schedule: Q01DX009 (ip), vehicle: saline with Tween-80): 94 % of control

C[n+]1ccncc1
T/C (endpoint: mean survival time, dose: 100.0 mg/kg/injection, schedule: Q01DX001 (ip), vehicle: saline): 102 % of control | T/C (endpoint: mean survival time, dose: 200.0 mg/kg/injection, schedule: Q01DX001 (ip), vehicle: saline): 102 % of control | T/C (endpoint: mean survival time, dose: 400.0 mg/kg/injection, schedule: Q01DX001 (ip), vehicle: saline): 104 % of control

C#CC[N+](CC)(CC)CCNC(=O)CCCCCCCCCCCCCCC
T/C [11]: 102 % of control

CCCCCC1C(O)C(=O)OC1(C(F)(F)F)C(F)(F)F (stereo not drawn)
T/C [6]: 91 % of control | T/C [7]: 94 % of control | T/C [8]: 96 % of control

C=C1C(=O)O[C@@H]2/C=C(/C)[C@@]3(O)C=C[C@](C)(C[C@@H](OC(=O)/C(=C\C)COC(C)=O)[C@@H]12)O3
T/C (endpoint: mean survival time, dose: 6.0 mg/kg/injection, schedule: Q01DX009 (ip), vehicle: saline with Tween-80): 88 % of control | T/C (endpoint: mean survival time, dose: 8.0 mg/kg/injection, schedule: Q01DX009 (ip), vehicle: saline with Tween-80): 94 % of control | T/C (endpoint: mean survival time, dose: 12.0 mg/kg/injection, schedule: Q01DX009 (ip), vehicle: saline with Tween-80): 94 % of control | T/C (endpoint: mean survival time, dose: 18.0 mg/kg/injection, schedule: Q01DX009 (ip), vehicle: saline with Tween-80): 98 % of control | T/C (endpoint: mean survival time, dose: 27.0 mg/kg/injection, schedule: Q01DX009 (ip), vehicle: saline with Tween-80): 93 % of control

CCCCCC(=O)/C=C/Sc1n[nH]c(=O)[nH]c1=O
T/C (endpoint: mean survival time, dose: 12.5 mg/kg/injection, schedule: Q01DX005 (ip), vehicle: distilled water + Tween-80): 96 % of control | T/C (endpoint: mean survival time, dose: 25.0 mg/kg/injection, schedule: Q01DX005 (ip), vehicle: distilled water + Tween-80): 100 % of control | T/C (endpoint: mean survival time, dose: 50.0 mg/kg/injection, schedule: Q01DX005 (ip), vehicle: distilled water + Tween-80): 104 % of control
